Measurements reported in US20220347139A1, “METHOD OF TREATMENT VIA INTRA-ARTICULAR APPLICATION OF POTASSIUM” (Rensselaer Polytechnic Institute, priority 2018, published 2022).
Entries after “also recorded” stand apart in the source; their conditions may differ.

Key:
[1] = system: Raw 264.7 murine macrophages; test: IFN-stimulated macrophages in PEGDA hydrogels, in vitro mimic of intra-articular injection; type: cell-based
Method: Referring now to FIG. 5A, an in vitro experiment was designed to mimic an intra-articular injection of potassium osmolytes consistent with the embodiments described above. Poly(ethylene glycol) diacrylate hydrogels encapsulated with proinflammatory interferon-gamma (IFN)-stimulated macrophages (M(IFN)s) were prepared. M(IFN)s were cultured for 5 days in the continued presence of IFN, with 80 mM K+ applied only during the first day and then removed. Other IA injection formulations—human mesenchymal stem cells (MSCs) and methylprednisolone acetate (MPA)—were also included to gain a sense of efficacy and benchmark against current OA treatments.
The PEGDA hydrogel (˜50 kPa stiffness) was provided at the bottom of the culture well to create a surface that more closely matches the stiffness of articular cartilage (aggregate modulus ˜500 kPa) than traditional plastic 2D surfaces (˜1×10^6 kPa). MSC behavior is known to respond to substrate stiffness. Assessments for treatment efficacy included cell lysate levels of several proinflammatory markers, anti-inflammatory markers, and the ratio between anti/proinflammatory profiles.
(§1) Raw 264.7 murine macrophages (a cell line) were thawed and expanded in regular growth medium: high-glucose Dulbecco's modified Eagle's medium (DMEM; Corning) supplemented with 10% fetal bovine serum (FBS; Hyclone, Atlanta Biologicals, Inc.). Primary human OACs (Cell Applications, Inc.) were expanded in chondrogenic growth media for four passages, transitioned into regular growth medium for 1 passage, and utilized at passage 5.
Aliquots ([…]; 1×10^6 cells per construct) of the cell/polymer suspension were dispensed into the wells of a 48-well plate (Corning) and cured by exposure to long-wave UV light (˜10 mW/cm^2) for 6 min. […]
Referring now to FIGS. 5B and 5C, relative protein production of proinflammatory and anti-inflammatory molecules and the ratio between anti/proinflammatory profiles in Raw 264.7 macrophages were determined after 5 days in culture. […]

Primary human OACs = test: Inflammatory protein production in osteoarthritic chondrocytes after short-term K+ treatment; type: cell-based
Description: as §1
Referring now to FIGS. 5B and 5C, relative protein production of proinflammatory and anti-inflammatory molecules and the ratio between anti/proinflammatory profiles in Raw 264.7 macrophages were determined after 5 days in culture. “*” denotes a significant difference relative to IFN controls. “#” denotes a significant difference relative to 24-h 80 mM K^+ gluconate. “+” denotes a significant difference relative to 24-h MSCs.

## O=C([O-])[C@H](O)[C@@H](O)[C@H](O)[C@H](O)CO.[K+] [K+ gluconate, potassium gluconate]
[1]; 80 mM K+ applied during the first day only, 5 days in culture in continued presence of IFN, relative to IFN controls
  anti/proinflammatory cytokine ratio (relative protein production): significantly enhanced
[1]; 80 mM, M(IFN)s
  macrophage polarization: toward an anti-inflammatory/proresolving phenotype
[1]; comparison between 40 and 80-mM treatments
  anti/proinflammatory profile, 40 mM versus 80 mM treatment: not significantly different
Primary human OACs
  IL-8 production: extended benefit
  MCP-1 production: extended benefit
Primary human OACs; listed as K^+
  MMP-13 production: extended benefit; also recorded: reduced production
